Assay results published in patent publication US20180318325A1, “ANTIBODIES FOR TARGETING CANCER STEM CELLS AND TREATING AGGRESSIVE CANCERS” (GlycoMimetics, Inc., priority 2015, published 2018).

Experiments:
[1] = tested on: MM1S^HECA452; assay: survival of SCID beige mice transplanted with MM1S^HECA452 cells; assay type: in vivo; settings: MM1S^HECA452 engrafted female SCID beige mice; FIG. 4
Description: (§1) The significance of these in vitro findings were studied in vivo. Female SCID beige mice were injected i.v. with either MM1S^par or MM1S^HECA452 (5×10^5 cells, n=8/group) and followed for survival (see, e.g., FIG. 2). In separate cohorts, the effect of treatment with saline control, GMI-1271, bortezomib (BTZ) or a combination of both was determined in mice transplanted with either MM1S^par or MM1S^HECA452 cells.

[2] = target: T1, E-selectin (Homo sapiens, UniProt P16581); assay: static adhesion assay on E-selectin; assay type: cell-based; settings: GMI-1271 included during culture conditions; MM1S^HECA452 cells
T1 sequence (P16581 22-610): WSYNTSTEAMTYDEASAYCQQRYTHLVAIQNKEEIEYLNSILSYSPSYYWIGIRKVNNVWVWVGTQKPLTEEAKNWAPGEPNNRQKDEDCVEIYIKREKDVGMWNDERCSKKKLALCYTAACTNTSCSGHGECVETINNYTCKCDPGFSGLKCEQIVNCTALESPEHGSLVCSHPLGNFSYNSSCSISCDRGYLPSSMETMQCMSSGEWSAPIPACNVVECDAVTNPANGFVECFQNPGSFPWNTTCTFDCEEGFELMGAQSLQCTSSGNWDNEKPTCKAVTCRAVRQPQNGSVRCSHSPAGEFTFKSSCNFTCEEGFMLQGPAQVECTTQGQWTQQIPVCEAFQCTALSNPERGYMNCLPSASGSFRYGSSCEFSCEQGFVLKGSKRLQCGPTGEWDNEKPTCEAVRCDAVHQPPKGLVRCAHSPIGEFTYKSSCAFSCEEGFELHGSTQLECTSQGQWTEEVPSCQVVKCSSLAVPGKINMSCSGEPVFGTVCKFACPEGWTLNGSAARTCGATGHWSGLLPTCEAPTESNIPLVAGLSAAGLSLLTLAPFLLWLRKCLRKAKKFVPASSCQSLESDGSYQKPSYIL
Description: (§2) The derived cell lines could be passaged in vitro and were stable for enriched E-selectin ligand expression identified by antibody HECA-452.

[3] = target: T1, E-selectin; assay: rolling on E-selectin under shear stress; assay type: cell-based; settings: both HECA-452 enriched and parental MM cell lines
Description: as §2

[4] = tested on: MM1S^par; assay: survival of SCID beige mice transplanted with MM1S^par cells; assay type: in vivo; settings: MM1S^par engrafted female SCID beige mice; FIG. 3
Description: as §1

[5] = tested on: MM1S^HECA452; assay: mobilization of human CD138+ MM cells into the bloodstream of mice with MM1S^HECA452 tumors; assay type: in vivo
Description: The number of human CD138+ MM cells was mobilized into the bloodstream in mice with MM1S^HECA452 tumors within 60 min following a single injection of GMI-1271 (see, e.g., FIG. 5) and persisted for at least 24 hours (2.37% v. 0.03%, p<0.001). This effect was consistent with GMI-1271 disrupting the tumor microenvironment and mobilizing MM1S^HECA-452 cells from the BM niche into the peripheral blood.

[6] = target: T1, E-selectin; settings: MM1S cells that bind to HECA-452; previously reported; cited from earlier work
[7] = tested on: MM cells; settings: murine transplant models; Natoni et al., Blood, 2014; cited from earlier work
[8] = following a single injection of GMI-1271

| Compound | survival / anti-myeloma activity [1] | adhesion of MM1S^HECA452 to E-selectin [2] | rolling on E-selectin [3] | survival [4] | human CD138+ MM cells in the bloodstream ([5]; after a single injection of GMI-1271, 24 hours, v. 0.03%, p<0.001) | persistence of mobilization [5, 8] | time to mobilization of CD138+ MM cells into the bloodstream [5, 8] | rolling of MM1S cells on E-selectin [6] | effect on activity of bortezomib in vivo [7] |
| --- | --- | --- | --- | --- | --- | --- | --- | --- | --- |
| CC(C)C[C@H](NC(=O)[C@H](Cc1ccccc1)NC(=O)c1cnccn1)B(O)O [BTZ, bortezomib] | marked resistance to BTZ treatment |  |  |  |  |  |  |  |  |
| CC[C@H]1C[C@@H](C(=O)NCCNC(=O)CCOCCOCCOCCOCCOCCOCCOCCOCCOCCOCCOCCOC)C[C@@H](O[C@@H]2O[C@H](CO)[C@H](O)[C@H](O[C@@H](CC3CCCCC3)C(=O)[O-])[C@H]2NC(C)=O)[C@@H]1O[C@@H]1O[C@@H](C)[C@@H](O)[C@@H](O)[C@@H]1O.[Na+] [GMI-1271] |  | marked reduction in adhesion | profoundly inhibited rolling | no impact on survival | 2.37% | at least 24 hours | ≤ 60 min | blocked the rolling | enhance the activity of bortezomib |
